The subject of one series is OATP1B1 versus OATP1B3. The series can be described thus: Selectivity index, ratio of IC50 for human liver OATP1B1 to IC50 for OATP1B3. As to conditions: read-out: Ratio IC50.
For series [1], the target named is T1, Solute carrier organic anion transporter family member 1B1 (Homo sapiens, UniProt Q9Y6L6).
T1 sequence (Q9Y6L6 whole entry): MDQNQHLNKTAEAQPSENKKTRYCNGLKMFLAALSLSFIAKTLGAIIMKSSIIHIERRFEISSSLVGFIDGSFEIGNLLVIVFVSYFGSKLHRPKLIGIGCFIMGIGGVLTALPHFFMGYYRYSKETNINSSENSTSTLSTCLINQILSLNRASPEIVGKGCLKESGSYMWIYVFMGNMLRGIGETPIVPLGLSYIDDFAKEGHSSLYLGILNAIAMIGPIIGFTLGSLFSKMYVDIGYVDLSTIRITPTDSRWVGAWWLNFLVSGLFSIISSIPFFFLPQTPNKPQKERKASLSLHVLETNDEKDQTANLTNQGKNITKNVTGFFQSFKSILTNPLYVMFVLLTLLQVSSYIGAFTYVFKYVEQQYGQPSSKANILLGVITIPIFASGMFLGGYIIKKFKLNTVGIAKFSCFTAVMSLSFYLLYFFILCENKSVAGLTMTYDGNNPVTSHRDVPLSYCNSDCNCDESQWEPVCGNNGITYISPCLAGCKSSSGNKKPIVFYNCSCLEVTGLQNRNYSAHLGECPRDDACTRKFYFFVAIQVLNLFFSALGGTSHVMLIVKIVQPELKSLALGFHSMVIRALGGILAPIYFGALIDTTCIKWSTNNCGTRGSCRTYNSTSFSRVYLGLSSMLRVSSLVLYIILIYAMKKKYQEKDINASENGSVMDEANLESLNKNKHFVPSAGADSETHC
The series can be described thus: Inhibition of human liver OATP1B1 expressed in HEK293 Flp-In cells assessed as reduction in E17-betaG uptake at 20 uM by scintillation counting. To be noted: hek293, 20 µM.

For series [2], the target named is T2, Solute carrier organic anion transporter family member 1B3 (Homo sapiens, UniProt Q9NPD5).
T2 sequence (Q9NPD5 whole entry): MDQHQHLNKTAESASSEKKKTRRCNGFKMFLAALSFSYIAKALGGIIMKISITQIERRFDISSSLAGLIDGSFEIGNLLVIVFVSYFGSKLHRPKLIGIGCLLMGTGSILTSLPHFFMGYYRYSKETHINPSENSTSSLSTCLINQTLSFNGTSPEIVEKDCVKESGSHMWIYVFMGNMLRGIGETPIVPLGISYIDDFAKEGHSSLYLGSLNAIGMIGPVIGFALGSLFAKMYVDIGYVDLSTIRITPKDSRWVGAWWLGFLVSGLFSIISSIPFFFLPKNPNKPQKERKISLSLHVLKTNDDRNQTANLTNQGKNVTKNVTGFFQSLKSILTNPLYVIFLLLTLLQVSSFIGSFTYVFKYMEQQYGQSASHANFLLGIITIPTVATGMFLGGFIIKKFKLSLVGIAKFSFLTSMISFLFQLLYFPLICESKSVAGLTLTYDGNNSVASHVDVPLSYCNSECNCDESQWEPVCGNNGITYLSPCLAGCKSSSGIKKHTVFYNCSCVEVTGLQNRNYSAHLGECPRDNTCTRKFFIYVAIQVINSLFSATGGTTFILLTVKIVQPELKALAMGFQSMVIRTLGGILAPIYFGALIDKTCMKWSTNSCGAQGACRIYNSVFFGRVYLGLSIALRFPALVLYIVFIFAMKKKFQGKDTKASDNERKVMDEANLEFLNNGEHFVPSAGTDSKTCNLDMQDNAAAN
The series can be described thus: Inhibition of human liver OATP1B3 expressed in HEK293 Flp-In cells assessed as reduction in [3H]E17-betaG uptake at 20 uM incubated for 5 mins by scintillation counting. To be noted: hek293, 5 min.

Series [3] addresses T3, Solute carrier organic anion transporter family member 2B1 (Homo sapiens, UniProt O94956).
T3 sequence (O94956 whole entry): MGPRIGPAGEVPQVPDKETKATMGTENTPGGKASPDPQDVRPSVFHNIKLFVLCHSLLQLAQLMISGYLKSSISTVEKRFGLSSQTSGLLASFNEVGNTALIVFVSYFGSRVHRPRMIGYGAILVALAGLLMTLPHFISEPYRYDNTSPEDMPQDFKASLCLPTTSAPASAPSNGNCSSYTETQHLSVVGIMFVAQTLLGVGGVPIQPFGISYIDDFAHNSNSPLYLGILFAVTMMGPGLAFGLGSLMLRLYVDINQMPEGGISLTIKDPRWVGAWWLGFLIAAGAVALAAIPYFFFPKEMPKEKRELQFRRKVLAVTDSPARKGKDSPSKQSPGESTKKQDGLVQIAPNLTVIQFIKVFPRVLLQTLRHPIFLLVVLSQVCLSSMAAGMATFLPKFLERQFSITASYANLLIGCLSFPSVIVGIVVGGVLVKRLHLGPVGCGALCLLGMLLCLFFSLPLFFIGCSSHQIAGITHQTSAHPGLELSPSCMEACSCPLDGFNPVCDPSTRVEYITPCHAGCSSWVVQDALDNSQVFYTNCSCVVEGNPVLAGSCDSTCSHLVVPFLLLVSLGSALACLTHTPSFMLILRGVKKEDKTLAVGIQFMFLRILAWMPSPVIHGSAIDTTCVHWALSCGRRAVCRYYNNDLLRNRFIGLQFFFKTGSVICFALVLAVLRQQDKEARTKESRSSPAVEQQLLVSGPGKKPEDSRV
The series can be described thus: Inhibition of human liver OATP2B1 expressed in HEK293 Flp-In cells assessed as reduction in [3H]E3S uptake at 20 uM incubated for 5 mins by scintillation counting. As to conditions: hek293, 5 min.

The target of series [4] is T1, Solute carrier organic anion transporter family member 1B1. The series can be described thus: Inhibition of human liver OATP1B1 expressed in HEK293 Flp-In cells assessed as reduction in E17-betaG uptake by scintillation counting. It counts as ADME, cell-based.
The target of series [5] is T2, Solute carrier organic anion transporter family member 1B3. The series can be described thus: Inhibition of human liver OATP1B3 expressed in HEK293 Flp-In cells assessed as reduction in [3H]E17-betaG uptake incubated for 5 mins by scintillation counting. It counts as ADME, cell-based.

Regarding `CC[C@]1(O)C[C@H]2CN(CCc3c([nH]c4ccccc34)[C@@](C(=O)OC)(c3cc4c(cc3OC)N(C=O)[C@H]3[C@@](O)(C(=O)OC)[C@H](OC(C)=O)[C@]5(CC)C=CCN6CC[C@]43[C@@H]65)C2)C1` [VINCRISTINE], the selectivity ratio in the series with OATP1B1 versus OATP1B3 worked out at 4. The INH in series [1] came to 3.9%; in series [2] it was 59.8%; in series [3], 13%. The IC50 in series [4] amounted to 44 µM; in series [5], 11 µM.

The record behind these values is ChEMBL document CHEMBL2163248, “Classification of inhibitors of hepatic organic anion transporting polypeptides (OATPs): influence of protein expression on drug-drug interactions” (J Med Chem, 2012).
